Data on six molecules can be found in ChEMBL document CHEMBL1649487, “Molecular characteristics of travel-related extended-spectrum-beta-lactamase-producing Escherichia coli isolates from the Calgary Health Region” (2009).

Common to all, as to type: functional
For assay [1], the system named is Escherichia coli. As to the kind of experiment: Antimicrobial activity against Extended-spectrum beta-lactamase producing Escherichia coli clinical isolate assessed as resistant isolate.
In assay [2] the test system is Escherichia coli. As to the kind of experiment: Antimicrobial activity against Extended-spectrum beta-lactamase producing Escherichia coli clinical isolate assessed as resistant isolate in presence of beta-lactamase inhibitor clavulanic acid.
For assay [3], the system named is Escherichia coli. As to the kind of experiment: Antimicrobial activity against Extended-spectrum beta-lactamase producing Escherichia coli clinical isolate assessed as resistant isolate in presence of beta-lactamase inhibitor Tazobactam.

Consider GENTAMICIN, for which, in the assay with Escherichia coli [1], the Activity worked out at 42%. On the same count and under the same terms, with `NCC[C@H](O)C(=O)N[C@@H]1C[C@H](N)[C@@H](O[C@H]2O[C@H](CN)[C@@H](O)[C@H](O)[C@H]2O)[C@H](O)[C@H]1O[C@H]1O[C@H](CO)[C@@H](O)[C@H](N)[C@H]1O` [AMIKACIN] the figure was 1%; with `O=C1CN(/N=C/c2ccc([N+](=O)[O-])o2)C(=O)N1` [NITROFURANTOIN], 7%.

As to `CC1(C)S[C@@H]2[C@H](NC(=O)[C@H](N)c3ccc(O)cc3)C(=O)N2[C@H]1C(=O)O` [AMOXICILLIN], the Activity in the assay with Escherichia coli [2] is reported as 74%. Regarding `CCN1CCN(C(=O)N[C@@H](C(=O)N[C@@H]2C(=O)N3[C@@H]2SC(C)(C)[C@@H]3C(=O)O)c2ccccc2)C(=O)C1=O` [PIPERACILLIN], in the assay with Escherichia coli [3], the Activity is recorded as 47%. As to `NC[C@H]1O[C@H](O[C@H]2[C@H](O)[C@@H](O[C@H]3O[C@H](CO)[C@@H](O)[C@H](N)[C@H]3O)[C@H](N)C[C@@H]2N)[C@H](N)C[C@@H]1O` [TOBRAMYCIN], the Activity in the assay on Escherichia coli [1] is 50%.
